Experimental data published in publication PMC5259791 (Scientific Reports, 2017).

How the values were obtained:
Hsp60 = biological target: T1, Hsp60 (Homo sapiens, UniProt P10809); test: SPR on immobilized Hsp60; format: binding
T1 construct: purchased Tebu-Bio
Description: Conversely, no affinity of the diterpene towards Hsp60 was observed (Fig. 2c).
(§1) SPR analyses were carried out on a BIACORE 3000 instrument (GE-Healthcare). PPARα, PPARγ, PPARδ and HSP60 surfaces were prepared on research−grade CM5 sensor chips (GE Healthcare). Proteins (100 μg/ml in 10 mM CH3COONa, pH 5.0) were immobilized using a standard amine−coupling protocol, to obtain densities of 3–5 kRU. Testing compounds were dissolved in 100% DMSO to obtain 4 mM solutions, and then diluted in PBS containing variable amounts of DMSO, achieving a final DMSO concentration of 0.1%. For each molecule a five−point concentration series (25 nM, 65 nM, 150 nM, 400 nM, 1 μM) was set up. SPR experiments and data elaboration were carried out as reported elsewhere.

PPARα = biological target: T2, PPARα (Homo sapiens, UniProt Q07869); test: SPR on immobilized PPARα; format: binding
T2 construct: purchased Tebu-Bio
T2 sequence (Q07869 1-468): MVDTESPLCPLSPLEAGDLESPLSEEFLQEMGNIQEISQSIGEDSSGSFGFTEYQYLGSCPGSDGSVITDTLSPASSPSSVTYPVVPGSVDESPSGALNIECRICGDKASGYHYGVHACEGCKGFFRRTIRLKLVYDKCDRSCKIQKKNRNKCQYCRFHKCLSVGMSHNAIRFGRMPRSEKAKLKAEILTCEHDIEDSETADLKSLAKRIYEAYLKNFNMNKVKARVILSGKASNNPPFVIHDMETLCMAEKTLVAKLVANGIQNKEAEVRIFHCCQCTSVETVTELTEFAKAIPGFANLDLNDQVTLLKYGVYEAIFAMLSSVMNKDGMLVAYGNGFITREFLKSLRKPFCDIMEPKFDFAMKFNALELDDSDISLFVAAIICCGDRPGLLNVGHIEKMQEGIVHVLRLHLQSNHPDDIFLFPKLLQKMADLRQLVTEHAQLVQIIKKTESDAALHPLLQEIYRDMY
Description: In order to evaluate if 1 acts as a selective ligand of PPARγ, SPR analyses were also carried out on immobilized PPARα and PPARδ, two proteins structurally and functionally related to PPARγ[23][24].
as §1

wild-type PPARγ1 = biological target: T3, wild-type PPARγ1 (Homo sapiens, UniProt P37231); test: PPRE-luciferase transactivation in HEK293T cells co-transfected with wild-type PPARγ1; format: cell-based; details: wild type receptor, 24 h
T3 construct: expressed in transfected cells; host or cells: HEK293T (transient); vectors from Takuma Shiraki
T3 sequence (P37231 1-477 isoform P37231-2): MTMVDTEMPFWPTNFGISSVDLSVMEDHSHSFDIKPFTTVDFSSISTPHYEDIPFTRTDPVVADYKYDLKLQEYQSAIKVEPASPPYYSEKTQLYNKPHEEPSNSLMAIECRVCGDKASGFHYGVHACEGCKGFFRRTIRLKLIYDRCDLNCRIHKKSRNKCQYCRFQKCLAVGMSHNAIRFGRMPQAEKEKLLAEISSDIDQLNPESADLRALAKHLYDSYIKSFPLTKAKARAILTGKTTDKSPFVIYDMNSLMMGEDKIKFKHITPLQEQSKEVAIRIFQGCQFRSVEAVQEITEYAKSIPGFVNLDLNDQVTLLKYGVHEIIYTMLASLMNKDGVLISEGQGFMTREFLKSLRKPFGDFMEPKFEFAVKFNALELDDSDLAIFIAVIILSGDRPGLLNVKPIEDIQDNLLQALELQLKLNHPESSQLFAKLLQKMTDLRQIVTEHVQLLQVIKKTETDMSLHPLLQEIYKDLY
Excerpt: Luciferase activity is reported as fold-induction after normalization to β-galactosidase activity used as control for transfection efficiency. […] (b) Human HEK293T cells were co-transfected with the PPRE-luciferase reporter gene and the wild-type PPARγ1 or its mutant version (C285A). […] Luciferase activity is reported as fold-induction after normalization to β-galactosidase activity used as control for transfection efficiency.
To this goal we transiently transfected basal HEK293T cells with the PPRE-TK-luciferase-reporter plasmid along with the expression vector for the wild-type PPARγ1 or the mutant version carrying the C285A substitution.
HEK293 cells that stably express an exogenous Flag-tagged PPARγ from a transfected PCDNA-3 vector carrying a complete PPARγ cDNA were used for transfection experiments. The PPRE-Luc plasmid contains a luciferase reporter gene under the transcriptional control of three copies of the PPRE (Peroxisome Proliferator Response Element) derived from Acyl-CoA oxidase gene fused upstream to the herpes simplex thymidine kinase (TK) promoter, as described. The RSV-βGal plasmid, expressing β-galactosidase gene, driven by the strong Rous Sarcoma Virus (RSV) promoter/cassette was used as an internal control for transfection efficiency. Transient transfection assays were carried out as described in ref. [44]. […]

HT29 cells = test: Western blot of proliferation/apoptosis markers in HT29 cells; format: cell-based
Excerpt: In addition, the expression of two components of the apoptotic pathway, such as caspase 3 and its substrate Poly (ADP-ribose) polymerase (PARP), was affected resulting in a reduction of the pro-caspase 3 precursor and an increase of the PARP cleaved form. Pre-treatment with GW9662 counteracted both the effects (Fig. 7b,c).
The graphs in (a–c) represent the mean ± SD of the protein/β-actin ratio from two independent experiments for p21^waf1/cip1, Caspase-3 precursor and cleaved PARP proteins, respectively. The graph in (d) represents the mean ± SD of pAKT/AKT ratio from two independent experiments.
Treated and untreated cells were lysed in Ripa buffer (150 mM NaCl, 50 mM Tris-HCl, pH 7.6, 10 mM EDTA, 1% NP-40) containing also a protease inhibitors cocktail and then centrifugated at 17,000 RCF for 10 min, at 4 °C. Supernatant containing total proteins was quantified and 80 μg of each sample were separated on 12% SDS-PAGE. Western blotting assays were carried out] Protein extracts from treated and untreated cells were obtained, quantified and analyzed by Western blot as reported.

[1] = exposure for 6 h, compound alone

T1 sequence (P10809 27-573): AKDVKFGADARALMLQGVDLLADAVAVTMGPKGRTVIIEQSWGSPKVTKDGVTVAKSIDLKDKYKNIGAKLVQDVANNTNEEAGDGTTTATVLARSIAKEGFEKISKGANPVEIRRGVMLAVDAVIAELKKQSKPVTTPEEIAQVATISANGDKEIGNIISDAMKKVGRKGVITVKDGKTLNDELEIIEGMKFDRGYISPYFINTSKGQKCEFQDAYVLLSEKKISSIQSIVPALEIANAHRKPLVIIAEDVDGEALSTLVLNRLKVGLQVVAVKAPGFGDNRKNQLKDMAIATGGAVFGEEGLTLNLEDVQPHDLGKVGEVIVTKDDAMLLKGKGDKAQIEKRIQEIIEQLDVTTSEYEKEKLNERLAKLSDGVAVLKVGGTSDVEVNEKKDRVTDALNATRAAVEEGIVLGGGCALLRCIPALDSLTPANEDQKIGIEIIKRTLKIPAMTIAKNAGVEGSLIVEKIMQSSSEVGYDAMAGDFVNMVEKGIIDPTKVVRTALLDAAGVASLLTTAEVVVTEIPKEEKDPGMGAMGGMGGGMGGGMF

For C=C1C(=O)C23CCC4C(C(=O)OC)CC(O)CC4(C)C2CCC1C3 (stereo not drawn) [Compound 1, 15-ketoatractyligenin methyl ester], the “affinity towards Hsp60” value (Hsp60) was “no affinity”, the “interaction with PPARα” value (PPARα) was “only a weak interaction” and the “time to complete dissociation of complex” value (PPARα; 1/PPARα complex) was “less than 50 s”. The Kd (PPARα; immobilized PPARα) was 1320 ± 80 nM, the “luciferase activity less than Rosiglitazone” value (wild-type PPARγ1) was 40% and the “p21^waf1/cip1 levels” value (HT29 cells; [1]) was “sharply increased”. The p-AKT levels (HT29 cells; [1]) was “robust reduction”, the PARP cleaved form (HT29 cells; exposure for 48 h) was “increase” and the “pro-caspase 3 precursor expression” value (HT29 cells; exposure for 48 h) was “reduction”.
